Key:
BCL2 G101V = BCL2 G101V (Homo sapiens, UniProt P10415, G101V); experiment: TR-FRET competitive binding assay, BCL2 G101V; conditions: BCL2 G101V; Ki determined from IC50; read-out: TR_FRET EKI_Bcl2 G101V
Description: (§1) The relative binding potency of each compound was determined in a competitive binding assay using time resolved-fluorescence resonance energy transfer (TR-FRET). The method utilised a fluorescein labelled peptide derived from PUMA (5Flu-Ahx-[…]-NH2 wherein Ahx means 6-hexanoic acid monomer and the amino acid sequence is referred to as SEQ ID:01) which binds to a terbium labelled BCL2 or BCLXL protein. The degree of binding or corresponding compound inhibition can be quantified by the TR-FRET signal between the terbium donor and fluorescein acceptor.
(§2) The human BCL2_wild-type (also named BCL2_wt), BCL2_G101V mutant and BCLXL_wild-type were E. coli expressed as a N-terminal Halo-fusion proteins and singly labelled with Terbium on the Halo protein to afford the following amino acid sequences:
(§3) wherein the BCL2(1-207) sequence corresponds to UniProtKB® primary accession number P10415 and the BCLXL(2-196) sequence corresponds to UniProtKB® primary accession number Q07817-1.
(§4) The assay was performed in a 40 μL volume in white 384-standard well plates (Corning #3574). An 11-point serial dilution of each compound was prepared in DMSO and transferred directly to plate followed by addition of fluorescein labelled peptide and lastly protein. Final assay conditions were 0.5 nM BCL2_wt, BCL2_G101V, BCL2_D103Y, BCL2_F104I, BCL2_D111A or BCLXL_wt, 2 or 20 nM fluorescein labelled peptide, 50 mM Hepes pH 7.5, 150 mM NaCl, 0.5 mM TCEP (Tris(2-carboxyethyl)phosphine), 0.05% Tween 20, 5% DMSO. The mixture was incubated for 2 hours at 23° C.
(§5) TR-FRET measurements were performed on a Biotek Synergy Neo plate reader. TR-FRET was measured by excitation of the Terbium-donor at 340 nm and subsequent (delay time 100 μs) measurement of terbium and fluorescein emission at 495 nm and 520 nm, respectively, over a collection time of 300 μs. The TR-FRET signal was calculated as the emission-ratio at 520 nm over 495 nm.
(§6) The TR-FRET ratio readout for test compounds was normalized against 0% inhibition controls wells and 100% inhibition control wells. Test compound potency (IC50) was estimated by nonlinear regression using the sigmoidal dose-response (variable slope) using Xlfit 4 (IDBS, Guildford, Surrey, UK, model 205). Were the IC50 could not be determined the % inhibition at the highest tested concentration is given.
(§7) y=(A+((B−A)/(1+((C/x)^D))))
(§8) where y is the normalized TR-TRET ratio measurement for a given concentration of test compound, x is the concentration of test compound, A is the estimated efficacy (% inhibition) at infinite compound dilution, and B is the maximal efficacy (% inhibition). C is the IC50 value and D is the Hill slope coefficient.
(§9) The K1 values were determined from the IC50 values according to Cer et al, Nucleic Acids Res, 2009, July 1; 37 (WebServer issue): W441-W445.

BCL2 WT = BCL2 WT (Homo sapiens (Human), UniProt P10415); experiment: TR-FRET competitive binding assay, BCL2 WT; conditions: Ki determined from IC50, read-out: TR_FRET EKI_Bcl2 WT
Description: as §1, §2, §3, §4, §5, §6, §7, §8, §9

BCLXL WT = BCLXL WT (Homo sapiens (Human), UniProt Q07817); experiment: TR-FRET competitive binding assay, BCLXL WT; conditions: for Ki: BCLXL WT, Ki determined from IC50, read-out: TR_FRET EKI BclxL; for TR_FRET EKI BCLxL/WT selectivty ratio: ratio Ki BCLxL / Ki BCL2 WT
BCLXL WT, sequence (Q07817 other isoform, or with tags, fused parts or gaps): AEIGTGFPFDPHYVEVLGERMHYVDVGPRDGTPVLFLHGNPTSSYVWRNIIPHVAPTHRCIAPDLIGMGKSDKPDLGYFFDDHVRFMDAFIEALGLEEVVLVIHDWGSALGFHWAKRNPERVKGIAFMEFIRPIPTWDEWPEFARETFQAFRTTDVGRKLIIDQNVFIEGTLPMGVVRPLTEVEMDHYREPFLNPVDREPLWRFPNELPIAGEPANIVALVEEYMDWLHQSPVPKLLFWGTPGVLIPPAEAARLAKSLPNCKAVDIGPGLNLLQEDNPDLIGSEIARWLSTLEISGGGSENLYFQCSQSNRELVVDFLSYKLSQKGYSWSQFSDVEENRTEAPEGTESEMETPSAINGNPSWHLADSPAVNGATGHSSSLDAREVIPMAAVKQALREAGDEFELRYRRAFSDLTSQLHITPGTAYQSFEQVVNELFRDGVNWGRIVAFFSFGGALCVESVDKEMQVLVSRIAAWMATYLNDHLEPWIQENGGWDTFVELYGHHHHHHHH
Description: as §1, §2, §3, §4, §5, §6, §7, §8, §9

KMS-12-PE Bcl-2 G101V = experiment: In vitro cytotoxicity CellTiter-Glo 48 h, KMS-12-PE Bcl-2 G101V; format: cell-based; conditions: for Ratio (G101V/WT): C50 KMS-12-PE Bcl-2 G101V over C50 KMS-12-PE Bcl-2 WT; for IC50: Homo sapiens, KMS-12-PE, 48 h, CellTiter-Glo, C50 = concentration needed to reach 50% of the cellular viability
Description: (§10) KMS-12-PE (ACC 606) were purchased from the Leibniz-Institute DSMZ (Braunschweig, Germany) and were grown at 37° C. in a humidified atmosphere with […] in media recommended by the suppliers. Lentiviral particles containing Bcl-2 wild type (also named “Bcl2 WT”) and Bcl-2 mutated on G101V (also named “Bcl2 G101V”) were cloned into pcLV-CMV-DEST-IRES-TagRFP. Lentiviral particles (1×106) were mixed with Polybrene at 8 µg/ml and transduced by spinoculation for 1 h at 32° C. and incubated overnight. After 8 days, TagRFP positive-cells were sorted by FACS. BCL2 expression was monitored by immunoblotting using anti-Flag and anti-BCL2 antibodies.
(§11) Cellular viability was monitored with the cell viability assay (CellTiter-Glo®) on KMS-12-PE WT and G101V cell lines. The CellTiter-Glo® (CTG) Luminescent Cell Viability Assay (from Promega) is a homogeneous method to determine the number of viable cells in culture based on quantitation of the ATP present, which signals the presence of metabolically active cells.
(§12) Dose response of compounds are performed with 10 mM stock solutions (DMSO), 11-points curve, in a 384-well compound plate. The assay plate is prepared by stamping 40 nL from compound dilution plate of all different concentrations (e.g. 10 mM to have final […] assay test) into a cell culture microplate, using Echo acoustic liquid handling (Labcyte, Beckman). 40 μl of cell solution is added and cells are incubated with compounds for 48 h at 37° C., 5% CO2. CTG was added to the cells (according to the manufacturer instructions) and luminescence intensity was recorded using the Pherastar plate reader (BMG).
(§13) This assay provides in vitro cellular potency of the tested Bcl-2 inhibitors, measuring the C50, defined as the concentration needed to reach 50% of the cellular viability.

BCL2 D103Y = BCL2 D103Y (Homo sapiens, UniProt P10415, D103Y); experiment: TR-FRET competitive binding assay, BCL2 D103Y; conditions: Ki determined from IC50, read-out: TR_FRET EKI_Bcl2 D103Y
Description: as §1, §2, §3, §4, §5, §6, §7, §8, §9

KMS-12-PE Bcl-2 WT = experiment: In vitro cytotoxicity CellTiter-Glo 48 h, KMS-12-PE Bcl-2 WT; format: cell-based; conditions: Homo sapiens, KMS-12-PE, C50 = concentration needed to reach 50% of the cellular viability
Description: as §10, §11, §12, §13

Structure (SMILES) | Ki (BCL2 G101V) [nM] | Ki (BCL2 WT) [nM] | Ki (BCLXL WT) [nM] | TR_FRET EKI BCLxL/WT selectivty ratio (BCLXL WT) | Ratio (G101V/WT) (KMS-12-PE Bcl-2 G101V) | IC50 (KMS-12-PE Bcl-2 G101V) [µM] | Ki (BCL2 D103Y) [nM] | IC50 (KMS-12-PE Bcl-2 WT) [µM]
COCc1ccc(CC(=O)N2CCc3cc(-c4cc(C(=O)N(c5ccc(O)cc5)c5cc(C#N)n(C)c5C)c(C)n4C)c(C(=O)N4Cc5ccccc5C[C@H]4C)cc3C2)cc1 [Example 87, N-(5-cyano-1,2-dimethyl-1H-pyrrol-3-yl)-N-(4-hydroxyphenyl)-5-(2-{2-[4-(methoxymethyl)phenyl]acetyl}-7-[(3R)-3-methyl-1,2,3,4-tetrahydroisoquinoline-2-carbonyl]-1,2,3,4-tetrahydroisoquinolin-6-yl)-1,2-dimethyl-1H-pyrrole-3-carboxamide] | 0.5 | 0.12 | 1.3 | 10.8 | 5.43 | 0.0394 | 0.46 | 0.0073
Cc1c(C(=O)N(c2ccc(O)cc2)c2cnn(C(F)F)c2)cc(-c2cc3c(cc2C(=O)N2Cc4ccccc4C[C@H]2C)CN(C(=O)Cc2ccc(OCCN4CCOCC4)cc2F)CC3)n1C [Example 186, N-[1-(difluoromethyl)pyrazol-4-yl]-5-[2-[2-[2-fluoro-4-(2-morpholinoethoxy)phenyl]acetyl]-7-[(3R)-3-methyl-3,4-dihydro-1H-isoquinoline-2-carbonyl]-3,4-dihydro-1H-isoquinolin-6-yl]-N-(4-hydroxyphenyl)-1,2-dimethyl-pyrrole-3-carboxamide] | 0.2 | 0.01 | 5.3 | 410.0 | – | – | 0.04 | 0.0047
COc1ncc(N(C(=O)c2cc(-c3cc4c(cc3C(=O)N3Cc5ccccc5C[C@H]3C)CN(C(=O)Cc3cccc(N5CC6(CN(C)C6)C5)c3)CC4)n(C)c2C)c2ccccc2)cc1F [Example 198, N-(5-fluoro-6-methoxy-3-pyridyl)-1,2-dimethyl-5-[2-[2-[3-(6-methyl-2,6-diazaspiro[3.3]heptan-2-yl)phenyl]acetyl]-7-[(3R)-3-methyl-3,4-dihydro-1H-isoquinoline-2-carbonyl]-3,4-dihydro-1H-isoquinolin-6-yl]-N-phenyl-pyrrole-3-carboxamide] | 1.4 | 0.01 | 0.6 | 58.6 | – | – | 0.07 | 0.0349
Cc1c(C(=O)N(c2ccccc2)c2cnn(C(F)F)c2)cc(-c2cc3c(cc2C(=O)N2Cc4ccccc4C[C@H]2C)CN(C(=O)Cc2ccc(OCCN(C)C)cc2)CC3)n1C [Example 199, N-[1-(difluoromethyl)pyrazol-4-yl]-5-[2-[2-[4-[2-(dimethylamino)ethoxy]phenyl]acetyl]-7-[(3R)-3-methyl-3,4-dihydro-1H-isoquinoline-2-carbonyl]-3,4-dihydro-1H-isoquinolin-6-yl]-1,2-dimethyl-N-phenyl-pyrrole-3-carboxamide] | 4.6 | 0.08 | 8.8 | 116.3 | – | – | 0.19 | 0.0244
COc1ncc(N(C(=O)c2cc(-c3cc4c(cc3C(=O)N3Cc5ccccc5C[C@H]3C)CN(C(=O)Cc3ccc(OCCN5CCOCC5)cc3)CC4)n(C)c2C)c2ccccc2)cc1C#N [Example 201, N-(5-cyano-6-methoxy-3-pyridyl)-1,2-dimethyl-5-[7-[(3R)-3-methyl-3,4-dihydro-1H-isoquinoline-2-carbonyl]-2-[2-[4-(2-morpholinoethoxy)phenyl]acetyl]-3,4-dihydro-1H-isoquinolin-6-yl]-N-phenyl-pyrrole-3-carboxamide] | 1.2 | 0.05 | 16.4 | 322.5 | – | – | 0.09 | 0.0394
Cc1c(N(C(=O)c2cc(-c3cc4c(cc3C(=O)N3Cc5ccccc5C[C@H]3C)CN(C(=O)Cc3cccc(N5CCCN(C)CC5)c3)CC4)n(C)c2C)c2ccc(O)cc2)cc(C#N)n1C [Example 231] | – | – | – | – | – | – | – | 0.0391
Cc1c(N(C(=O)c2cc(-c3cc4c(cc3C(=O)N3Cc5ccccc5C[C@H]3C)CN(C(=O)Cc3ccc(OCCC5CCN(C)CC5)nc3)CC4)n(C)c2C)c2ccc(O)cc2)cc(C#N)n1C [Example 232] | – | – | – | – | 2.0 | 0.0657 | – | 0.0328

Source: US20250179047A1, “5-[7-(3,4-DIHYDRO-1H-ISOQUINOLINE-2-CARBONYL)-1,2,3,4 TETRAHYDROISOQUINOLIN-6-YL]-1H-PYRROLE-3-CARBOXAMIDE DERIVATIVES, PHARMACEUTICAL COMPOSITIONS CONTAINING THEM AND THEIR USES AS PRO-APOPTOTIC AGENTS” (LES LABORATOIRES SERVIER, priority 2022, published 2025)
